Measured values from ChEMBL document CHEMBL5523681, “Lysosome-targeted Aza-BODIPY photosensitizers for anti-cancer photodynamic therapy” (Bioorg Med Chem, 2024).
Calls of active or inactive are those of the source. The rule behind the calls is not given here.

Experiments:
[1] = Drug uptake in human HeLa cells assessed as increase in fluorescence intensity at 5 uM by confocal scanning microscopic analysis; format: ADME, cell-based; conditions: 5 h, TDE = time-dependent effect
[2] = Drug uptake in mouse B16-F10 cells measured after 4 hrs by confocal scanning microscopic analysis; format: ADME, cell-based; conditions: b16-f10, 4 h
[3] = Drug localization in lysosome of human HeLa cells at 5 uM incubated for 3 hrs by Lyso-tracker blue dye based confocal scanning microscopic analysis; format: ADME, subcellular
[4] = Drug localization in mitochondria of human HeLa cells at 5 uM incubated for 3 hrs by Mito-tracker green dye based confocal scanning microscopic analysis; format: ADME
[5] = Drug localization in endoplasmic reticulum of human HeLa cells at 5 uM incubated for 3 hrs by ER-Tracker blue dye based confocal scanning microscopic analysis; format: ADME, subcellular
HeLa [6] = test: Induction of ROS production in human HeLa cells assessed as increase in fluorescence intensity at 20 to 500 nM incubated for 3 hrs in presence of 81 J/cm2 light irradiation by confocal scanning microscopic analysis; format: functional, cell-based; conditions: dose 20-500 nM
[7] = Dark toxicity in human HeLa cells incubated for 3 hrs by CCK-8 assay; format: cell-based
[8] = Dark toxicity in human HepG2 cells incubated for 3 hrs by CCK-8 assay; format: cell-based
[9] = Dark toxicity in mouse B16-F10 cells incubated for 3 hrs by CCK-8 assay; format: cell-based
HeLa [10] = test: Cytotoxicity against human HeLa cells preincubated with compound for 3 hrs followed by 81 J/cm2 light irradiation and measured after 24 hrs by CCK8 assay; format: functional, cell-based; conditions: light or radiation study
HepG2 = test: Cytotoxicity against human HepG2 cells preincubated with compound for 3 hrs followed by 81 J/cm2 light irradiation and measured after 24 hrs by CCK8 assay; format: functional, cell-based; conditions: HepG2, light or radiation study
B16-F10 = test: Cytotoxicity against mouse B16-F10 cells preincubated with compound for 3 hrs followed by 81 J/cm2 light irradiation and measured after 24 hrs by CCK8 assay; format: functional, cell-based; conditions: B16-F10, light or radiation study
[11] = Fluorescence property of compound assessed as quantum yield; format: physicochemical
[12] = Drug uptake in female BALB/c nude mouse xenografted with human HeLa cells at 2 mg/kg, iv measured after 3 hrs by fluorescence imaging analysis; format: ADME, organism-based; conditions: in vivo
[13] = Drug uptake in liver of female BALB/c nude mouse xenografted with human HeLa cells at 2 mg/kg, iv measured after 3 hrs by fluorescence imaging analysis; format: ADME, organism-based; conditions: in vivo
[14] = Drug uptake in lung of female BALB/c nude mouse xenografted with human HeLa cells at 2 mg/kg, iv measured after 3 hrs by fluorescence imaging analysis; format: ADME, organism-based; conditions: in vivo
[15] = Drug uptake in spleen of female BALB/c nude mouse xenografted with human HeLa cells at 2 mg/kg, iv measured after 3 hrs by fluorescence imaging analysis; format: ADME, organism-based; conditions: in vivo
HeLa [16] = test: Antitumor activity against human HeLa cells xenografted in female BALB/c nude mouse assessed as inhibition of tumor growth at 2 mg/kg, iv preadministered with compound for 3 hrs followed by 54 J/cm2 light irradiation and measured after 24 days; format: functional, organism-based; conditions: time 24.0 day
HeLa [17] = test: Antitumor activity against human HeLa cells xenografted in female BALB/c nude mouse assessed as reduction in tumor size at 2 mg/kg, iv preadministered with compound for 3 hrs followed by 54 J/cm2 light irradiation and measured after 24 days relative to control; format: functional; design: scale not given: the % may be the effect or the level left; conditions: time 24 day
[18] = Toxicity in female BALB/c nude mouse xenografted with human HeLa cells assessed as decrease in body weight at 2 mg/kg, iv preadministered with compound for 3 hrs followed by 54 J/cm2 light irradiation and measured after 24 days; format: organism-based; conditions: in vivo, 576 h, time 24 day
[19] = Photosensitizing ability of the compound in DMF at pH 7 assessed as singlet oxygen quantum yield; format: functional
[20] = Photosensitizing ability of the compound in DMF at pH 5.2 assessed as singlet oxygen quantum yield in presence of HCl; format: functional
[21] = Ratio of singlet oxygen quantum yield in DMF at pH 5.2 in presence of HCl to singlet oxygen quantum yield in DMF at pH 7; format: functional
[22] = Photosensitizing ability of the compound in PBS at pH 7.4 assessed as singlet oxygen production by measuring relative degradation rate of DPBF at 411 nm under photoirradiation with 90 mW/cm2 light by absorbance based assay; format: functional
[23] = Photosensitizing ability of the compound in PBS at pH 5.2 in presence of HCl assessed as singlet oxygen production by measuring relative degradation rate of DPBF at 411 nm under photoirradiation with 90 mW/cm2 light by absorbance based assay; format: functional
[24] = Ratio of relative degradation rate of DPBF in PBS at pH 5.2 in presence of HCl to relative degradation rate of DPBF in PBS at pH 7; format: physicochemical; conditions: buffer
[25] = Stability of compound in DMF under dark condition; format: physicochemical
[26] = Stability of compound in CH3CN under dark condition; format: physicochemical
[27] = Stability of compound in emulsified PBS buffer under dark condition; format: physicochemical
[28] = Photostability of compound in emulsified PBS buffer in presence of […] light irradiation measured upto 10 mins by absorption based assay; format: physicochemical
MRC5 = test: Cytotoxicity against human MRC5 cells in presence of 16 J/cm^2 light irradiation; format: functional, cell-based; conditions: MRC5, light or radiation study
[29] = Fluorescence property of compound assessed as quantum yield in CHCl3 by spectroscopic analysis; format: physicochemical
[30] = Toxicity in female BALB/c nude mouse xenografted with human HeLa cells assessed as decrease in body weight at 2 mg/kg, iv preadministered with compound for 3 hrs followed by 54 J/cm2 light irradiation and measured after 10 days; format: organism-based; conditions: in vivo, 240 h, time 10 day
[31] = Drug localization in mitochondria of human HeLa cells at 5 uM incubated for 2 hrs by Mito-tracker green dye based confocal scanning microscopic analysis; format: ADME
[32] = Drug localization in endoplasmic reticulum of human HeLa cells at 5 uM incubated for 2 hrs by ER-Tracker blue dye based confocal scanning microscopic analysis; format: ADME, subcellular

With `CCN(CC)Cc1ccc(C2=C(I)C(c3ccc(OC)cc3)=[N+]3C2=Nc2c(-c4ccc(CN(CC)CC)cc4)cc(-c4ccc(OC)cc4)n2[B-]3(F)F)cc1` the Drug uptake [1] was “Tde”, the Drug uptake [2] was “Active” and the Drug uptake [3] was “Active”. For the same compound, the Drug uptake [4] was “Not Active”, the Drug uptake [5] was “Not Active” and the Activity (HeLa [6]) was “Active”. The IC50 at 3 h [7] was over 50000 nM, the IC50 at 3 h [8] was over 50000 nM and the IC50 at 3 h [9] was over 50000 nM. It also gave an IC50 (HeLa [10]) of 5.3 nM, an IC50 (HepG2) of 15.1 nM and an IC50 (B16-F10) of 7.9 nM. For the same compound, the Activity [11] was 0.05, the Drug uptake [12] was “Active” and the Drug uptake [13] was “Active”. The Drug uptake [14] was “Active”, the Drug uptake [15] was “Active” and the Activity (HeLa [16]) was “Active”. The Activity (HeLa [17]) was 60%, the Activity [18] was “Non-Toxic” and the Activity [19] was 0.44. The Activity [20] was 0.65, the Ratio [21] was 1.48 and the Activity [22] was 1.07. The Activity [23] was 1.45, the Ratio [24] was 1.36 and the Stability [25] was “Stable”. The Stability [26] was “Stable”, the Stability [27] was “Stable” and the Stability [28] was “Stable”.
`CCN(CC)Cc1ccc(C2=C(Br)C(c3ccc(OC)cc3)=[N+]3C2=Nc2c(-c4ccc(CN(CC)CC)cc4)c(Br)c(-c4ccc(OC)cc4)n2[B-]3(F)F)cc1` showed an IC50 at 3 h [7] of 22000 nM, an IC50 at 3 h [8] of 23500 nM and an IC50 at 3 h [9] of 33100 nM. The IC50 (HeLa [10]) was 44.9 nM, the IC50 (HepG2) was 70.6 nM and the IC50 (B16-F10) was 20.8 nM. It also gave an Activity [19] of 0.25, an Activity [20] of 0.65 and a Ratio [21] of 2.6. It also gave an Activity [22] of 1.06, an Activity [23] of 1.15 and a Ratio [24] of 1.08. The Stability [25] was “Unstable”, the Stability [26] was “Unstable” and the Stability [27] was “Unstable”. For the same compound, the Stability [28] was “Unstable” and the EC50 (MRC5) was 5.8 nM.
For `COc1ccc(C2=N/C(=N\c3[nH]c(-c4ccc(OC)cc4)cc3-c3ccccc3)C(c3ccccc3)=C2)cc1`, the Activity [29] was 0.36.
For `CCN(CC)Cc1ccc(C2=C(I)C(c3ccc(OC)cc3)=[N+]3C2=Nc2c(-c4ccccc4)c(I)c(-c4ccc(OC)cc4)n2[B-]3(F)F)cc1`, the IC50 at 3 h [7] was over 50000 nM, the IC50 at 3 h [8] was 49400 nM and the IC50 at 3 h [9] was 49900 nM. It also gave an IC50 (HeLa [10]) of 60.8 nM, an IC50 (HepG2) of 132 nM and an IC50 (B16-F10) of 78.6 nM. It also gave an Activity [19] of 0.58, an Activity [20] of 0.74 and a Ratio [21] of 1.28. It also gave an Activity [22] of 0.87, an Activity [23] of 0.98 and a Ratio [24] of 1.13. For the same compound, the Stability [25] was “Unstable”, the Stability [26] was “Unstable” and the Stability [27] was “Unstable”. For the same compound, the Stability [28] was “Unstable”.
For `CCN(CC)Cc1ccc(C2=C(I)C(c3ccc(OC)cc3)=[N+]3C2=Nc2c(-c4ccc(CN(CC)CC)cc4)c(I)c(-c4ccc(OC)cc4)n2[B-]3(F)F)cc1`, the IC50 at 3 h [7] was 26100 nM, the IC50 at 3 h [8] was 28900 nM and the IC50 at 3 h [9] was 49600 nM. For the same compound, the IC50 (HeLa [10]) was 51.1 nM, the IC50 (HepG2) was 73.5 nM and the IC50 (B16-F10) was 73.5 nM. It also gave an Activity [19] of 0.61, an Activity [20] of 0.75 and a Ratio [21] of 1.23. The Activity [22] was 0.91, the Activity [23] was 1.09 and the Ratio [24] was 1.2. For the same compound, the Stability [25] was “Unstable”, the Stability [26] was “Unstable” and the Stability [27] was “Unstable”. For the same compound, the Stability [28] was “Unstable”.
Work on `CCN(CC)Cc1ccc(C2=C(I)C(c3ccc(OC)cc3)=[N+]3C2=Nc2c(-c4ccccc4)c4c(n2[B-]3(F)F)-c2ccc(OC)cc2CC4)cc1` yielded an IC50 at 3 h [7] of over 50000 nM, an IC50 at 3 h [8] of over 50000 nM and an IC50 at 3 h [9] of over 50000 nM. It also gave an IC50 (HeLa [10]) of 6.7 nM, an IC50 (HepG2) of 14.1 nM and an IC50 (B16-F10) of 15 nM. For the same compound, the Activity [19] was 0.44, the Activity [20] was 0.51 and the Ratio [21] was 1.16. For the same compound, the Activity [22] was 0.84, the Activity [23] was 1.21 and the Ratio [24] was 1.44. For the same compound, the Stability [25] was “Stable”, the Stability [26] was “Stable” and the Stability [27] was “Stable”. The Stability [28] was “Stable”.
With `C=Cc1c(C)c2cc3nc(c(CC(=O)O)c4[nH]c(cc5nc(cc1[nH]2)C(C)=C5CC)c(C)c4C(=O)O)[C@@H](CCC(=O)O)[C@@H]3C` [CHLORIN E6] the Activity (HeLa [16]) was “Active” and the Activity [30] was “Toxic”.
In the case of `COc1ccc(C2=[N+]3C(=Nc4c(-c5ccccc5)cc(-c5ccc(OC)cc5)n4[B-]3(F)F)C(c3ccccc3)=C2I)cc1`, the Drug uptake [31] is reported as “Not Active”, the Drug uptake [32] is reported as “Not Active” and the IC50 at 3 h [7] is reported as over 50000 nM. The IC50 at 3 h [8] was over 50000 nM, the IC50 at 3 h [9] was over 50000 nM and the IC50 (HeLa [10]) was 26.7 nM. The IC50 (HepG2) was 38.6 nM, the IC50 (B16-F10) was 155 nM and the Activity (HeLa [16]) was “Active”. The Activity [18] was “Non-Toxic”, the Activity [19] was 0.52 and the Activity [20] was 0.51. It also gave a Ratio [21] of 0.98, an Activity [22] of 1.18 and an Activity [23] of 1.19. The Ratio [24] was 1.01 and the Stability [28] was “Stable”.
